Entries after “also recorded” stand apart in the source; their conditions may differ.
Assays:
HT29 cells [1] = assay: 3D hyaluronan-based hydrogel construct drug screen, MTS assay; type: cell-based; details: for viability at 100 µM: Homo sapiens, HT-29, 100 μM, HT29, drug day 5, assay day 7, read-out: percent relative cell viability (MTS, relative to control)
Description: (§1) Polydimethylsiloxane, or PDMS, was used to coat the bottom of the wells. Cells were embedded within the hyaluronan-based hydrogel and were given 5 days to acclimate to their three-dimensional environment and on day 5 were administered different anticancer drug solutions (FIG. 7, panel A). […] At 100 μM concentrations of Regorafenib and Sorafenib, cellular viability remained below 25% that of the control for all four of the colorectal cancer cell lines utilized. The only exception to this was when 100 μM Regorafenib was administered to CACO2 cells and the percent relative cell viability rose to approximately 48%. […] At a 100 μM concentration, Dabrafenib had greater efficacy in targeting the HCT116 and SW480 cell lines, which had relative cellular viability values of 38% and 43%, as opposed to the HT29 and CACO2 cell lines, which had higher cell viability values of 93% and 75%. 100 μM concentrations of Trametinib produced relative cellular viability results that fell within a narrow range for the four colorectal cell lines with values of 54% for SW480 cells and 74% for HT29 cells.
(§2) Well Coating with PDMS and Cell Isolation: Polydimethylsiloxane, or PDMS, (DOW Corning, North Carolina, USA) was used at a 1:10 curing agent ratio to coat the bottom of the 96-well plates and the plates were then placed in a 80° C. oven for at least one hour. Cells were passaged in the same methods previously mentioned (A) with the desire to place 10 μL 3D hyaluronan-based hydrogel constructs containing 100,000 cells each ([…]) into the wells of a 96-wells plate for all four colorectal cancer cell types. Depending on the cell count, a desired number of cells were isolated in new 15 mL centrifuge tubes as cell-media solution and underwent centrifugation.
(§3) Hydrogel Components of the Single-Cell Type Constructs: The hyaluronic acid-based hydrogel (ESI BIO, California, USA) was produced using a mixture of three components: Heprasil, Gelin-S, and Extralink PEGDA 2-ARM Acrylate crosslinker. These components were mixed in a 2:2:1 ratio by volume. 0.1% Irgacure photoinitiator (Sigma-Aldrich, Missouri, USA) was added to each of the three components prior to their mixture and the three components were placed in a 37° C. incubator for a ˜30 minutes to solubilize.
(§4) Forming Organoid Constructs: Once solubilized, the media was aspirated from the 15 mL centrifuge tube (post-centrifugation) and the cells were isolated as a pellet. The hydrogel components were added directly into the centrifuge tube containing the cells and the cells were carefully resuspended in the mixture. 10 μL of the gel-cell solution was placed in the center of the wells on the PDMS coating. This was continued for all wells containing cells and was repeated for each cell type. After this point, the gel can be exposed to UV light from a BlueWave 200 spot light (Dymax, Connecticut, USA) to solidify the hydrogel, or one can wait ˜30 minutes for the gel to form on its own. DMEM-10 media was then placed in the wells and the constructs were incubated for 5 days.
(§5) Anticancer Drug Screening and Cell Viability: The same five anticancer drugs were added on Day 5 and the cell viability assay occurred on Day 7.

SW480 cells [2] = assay: as above; type: cell-based; details: for viability at 100 µM: Homo sapiens, SW480, drug day 5, assay day 7, read-out: percent relative cell viability (MTS, relative to control)
Description: as §1, §2, §3, §4, §5

CACO2 cells [3] = assay: as above; details: Homo sapiens, Caco-2, 3D, 100 μM, CACO2, drug day 5, assay day 7; read-out: percent relative cell viability (MTS, relative to control)
Description: as §1, §2, §3
Forming Organoid Constructs: Once solubilized, the media was aspirated from the 15 mL centrifuge tube (post-centrifugation) and the cells were isolated as a pellet. The hydrogel components were added directly into the centrifuge tube containing the cells and the cells were carefully resuspended in the mixture. 10 μL of the gel-cell solution was placed in the center of the wells on the PDMS coating. This was continued for all wells containing cells and was repeated for each cell type. […]

HCT116 cells [4] = assay: as above; details: Homo sapiens, HCT-116, 3D, 100 μM, HCT116, drug day 5, assay day 7; read-out: percent relative cell viability (MTS, relative to control)
Description: Polydimethylsiloxane, or PDMS, was used to coat the bottom of the wells. Cells were embedded within the hyaluronan-based hydrogel and were given 5 days to acclimate to their three-dimensional environment and on day 5 were administered different anticancer drug solutions (FIG. 7, panel A). […], Dabrafenib had greater efficacy in targeting the HCT116 and SW480 cell lines, which had relative cellular viability values of 38% and 43%, as opposed to the HT29 and CACO2 cell lines, which had higher cell viability values of 93% and 75%. […]
as §2, §3, §4, §5

SW480 cells [5] = assay: 2D drug screen, MTS assay; type: cell-based; details: Homo sapiens, read-out: relative cellular viability (MTS, relative to control)
Description: (§6) Cancer cells seeded directly into wells were given 4-5 hours to reattach to the bottom of the wells. After that time, the anticancer drug solutions were administered in place of the media (FIG. 6, panel A) and an MTS assay was carried out 2 days later to determine cell viability. […] At 100 μM concentrations of Regorafenib and Sorafenib, and 100 mM concentrations of 5-FU, cellular viability remained below 20% that of the control for all four of the colorectal cancer cell lines utilized. However, screening with Dabrafenib and Trametinib produced diverging results from the other three anticancer drugs at higher concentrations. […] When treated with 1 mM concentrations of 5-FU, relative cellular viability was approximately 39% for SW480 cells and remained between 10%-22% for the HCT116, HT29, and CACO2 cells. These values were considerably lower than the relative cellular viability values for the lowest concentrations of the other anticancer drugs.
(§7) Cell Seeding: The original 15 mL centrifuge tubes containing the 10 mL of DMEM-10, cells, and trypsin were placed into a centrifuge. The centrifugation setting was 1500 RPM and at maximal acceleration for 5 minutes. After that time, the media and trypsin mixture was aspirated from the tubes, leaving the cell pellets still intact. 5 mL of DMEM-10 was then pipetted into each of the tubes, resuspending the cells in the process. Calculated volumes of the 5 mL cell-media solution were determined to ensure that 25,000 cells of each of the four colorectal cancer cell lines were seeded directly into each of the wells of a polystyrene clear-bottom 96-well plate. 100 μL of DMEM-10 media was then pipetted directly into the wells. The 96-well plates were incubated at 37° C. and 5% CO2 for 5 hours to allow the cells to reattach themselves to the bottom of the wells until media was aspirated and anticancer drug solutions were added.
(§8) Addition of Anticancer Drugs for Screening: The anticolorectal cancer drugs used in this screening included 5-FU, Regorafenib, Sorafenib, Trametinib, and Dabrafenib (Sigma-Aldrich, Missouri, USA)). High concentration drug stock solutions were created with DMSO. Lower concentration drug solutions were created by mixing the anticancer drug stocks with DMEM-10 media. […] drug solutions were generated for 5-FU; 1 μM, 10 μM, and 100 μM drug solutions were generated for Regorafenib, Sorafenib, and Dabrafenib; and 1 nM, 10 nM, and 100 nM drug solutions were generated for Trametinib. Media was carefully aspirated from the wells and 200 μL of the various drug-media solutions were placed into the wells containing cells. Three duplicates were generated for each anticancer drug concentration with each of the different cell types to calculate averages and run statistics on the data generated. Well plates were then incubated at 37° C. and 5% CO2 for […].
(§9) Cell viability assay: Cell viability was determined 48 hours after exposure to the anticancer drug solutions. The viability of the cells was examined by the CellTiter 96® AQueous One Solution Cell Proliferation (MTS) assay (Promega, Wisconsin, USA). The anticancer drug-media solutions were aspirated from the wells and 200 μL of the MTS reagent was carefully pipetted into the wells. The incubation time for the cells with the MTS reagent was approximately 45 minutes. The cell viability assay was performed on another 96-well plate and the absorbance was quantified by the EnVision Multilabel Plate Reader (PerkinElmer, California, USA).

HCT116 cells [6] = assay: cells; type: cell-based; details: Homo sapiens, HCT-116, read-out: relative cellular viability (MTS, relative to control)
Description: as §6, §7, §8, §9

CACO2 cells [7] = assay: cells; type: cell-based; details: Homo sapiens, Caco-2, read-out: relative cellular viability (MTS, relative to control)
Description: as §6, §7, §8, §9

HT29 cells [8] = assay: cells; type: cell-based; details: Homo sapiens, HT-29, read-out: relative cellular viability (MTS, relative to control)
Description: as §6, §7, §8, §9

[9] = tested on: liver, cardiac, lung, testis, and brain organoids; assay: 5 organoid integrated drug screening (standard size platform), live/dead staining; type: cell-based; details: 20 uM
Description: (§10) Design and Results of Experiments: Five tissue platforms were initiated containing liver, cardiac, lung, testis, and brain organoids and maintained for 7 days prior to the start of the drug study. At this point, the liver modules were removed from half of the platforms. Capecitabine (20 uM) was administered to all platforms after which viability was assessed through live/dead staining or cardiac beating behavior after 7 days of exposure (day 14 of total study).

[10] = tested on: liver, cardiac, lung, testis, and brain organoids; assay: 5 organoid integrated drug screening in a miniaturized microfluidic platform, live/dead staining; type: cell-based; details: miniaturized system, 20 uM
Description: as §10, with “Experiments: Adhesive film-based microfluidic platforms were fabricated as described below. As with the full-scale platform described in Example 4, five” for “Experiments: Five”, “tissue constructs” for “tissue platforms”
FIG. 14 provides an overview of this fabrication methodology.

[11] = 7 days of exposure, with liver present
[12] = 7 days of exposure, without liver

SMILES: CC(C)(C)c1nc(-c2cccc(NS(=O)(=O)c3c(F)cccc3F)c2F)c(-c2ccnc(N)n2)s1 [Dabrafenib]
- viability at 100 µM (HT29 cells [1]): 93%
- viability at 100 µM (SW480 cells [2]): 43%
- viability at 100 µM (CACO2 cells [3]): 75%
- viability at 100 µM (HCT116 cells [4]): 38%
- viability at 100 µM (SW480 cells [5]): ~93%
- viability at 100 µM (HCT116 cells [6]): ~36%

SMILES: CNC(=O)c1cc(Oc2ccc(NC(=O)Nc3ccc(Cl)c(C(F)(F)F)c3)cc2)ccn1 [Sorafenib]
- viability at 100 µM (HT29 cells [1]): < 25%
- viability at 100 µM (SW480 cells [2]): < 25%
- viability at 100 µM (CACO2 cells [3]): < 25%
- viability at 100 µM (HCT116 cells [4]): < 25%
- viability at 100 µM (SW480 cells [5]): < 20%
- viability at 100 µM (CACO2 cells [7]): < 20%
- viability at 100 µM (HT29 cells [8]): < 20%
- viability at 100 µM (HCT116 cells [6]): < 20%

SMILES: CC(=O)Nc1cccc(-n2c(=O)n(C3CC3)c(=O)c3c(Nc4ccc(I)cc4F)n(C)c(=O)c(C)c32)c1 [Trametinib]
- percent relative cell viability (MTS, relative to control) (HT29 cells [1]; 100 μM concentrations of Trametinib, HT29): 74%
- percent relative cell viability (MTS, relative to control) (SW480 cells [2]; 100 μM concentrations of Trametinib, SW480): 54%
- viability at 0.1 µM (SW480 cells [5]; 100 nM): ~58%
- viability at 0.1 µM (CACO2 cells [7]): ~39%

SMILES: CCCCCOC(=O)Nc1nc(=O)n([C@@H]2O[C@H](C)[C@@H](O)[C@H]2O)cc1F [capecitabine]
- brain organoid viability (LIVE/DEAD) ([9]; 7 days of exposure, with and without liver): brain organoids suffered in both groups
- cardiac and lung organoid toxicity (LIVE/DEAD) [9, 11]: heart and lung toxicity; also recorded: increased cell death in cardiac and lung organoids
- cardiac and lung organoid viability (LIVE/DEAD) [9, 12]: cardiac and lung organoid viability does not decrease
- metabolism by liver organoids ([9]; with liver present): metabolized into the toxic drug 5-FU
- brain organoid viability (LIVE/DEAD) ([10]; 7 days of exposure): brain organoid viability is high
- cardiac and lung organoid toxicity (LIVE/DEAD) [10, 11]: heart and lung toxicity
- cardiac and lung organoid viability (LIVE/DEAD) [10, 12]: cardiac and lung organoid viability does not decrease
- metabolism by liver organoids ([10]; with liver present): metabolized into the toxic drug 5-FU

Source: US20190187129A1, “CANCER MODELING PLATFORMS AND METHODS OF USING THE SAME” (Wake Forest University Health Sciences, priority 2016, published 2019)
